Data from US4562206A, “Orally effective inotropic compounds” (Key Pharmaceuticals, Inc., priority 1984, dated 1985).
“Also recorded” adds a separate entry of the source. Where a name gives a salt, the structure may show the parent alone. Blank lines part the entries; values can stand above or below the molecule they belong to.

Legend:
[1] = system: diastolic blood pressure; assay: Arterial blood pressure change, intravenous infusion, anesthetized open-chest dogs; format: in vivo; settings: for Blood Pressure, Mean ± S.E. (change in diastolic blood pressure): dose 4 times larger than CC50, i.v.; for effect on blood pressure: i.v.
Source text: To illustrate the structural specificity of the compounds of the invention, four close structural analogs of Compound I were synthesized and their activity compared to that of Compound I. In these tests dobutamine was used as a standard so that Compound I and the four structural analogs could be compared on a common basis. FIGS. 1 and 2 graphically compares dobutamine, Compound I and Compound V (the closest structural analog of dobutamine and Compound I).
(§1) The data in FIGS. 1 and 2 and Table 2 were obtained on dogs anesthetized with sodium pentobarbital (30 mg/kg, i.v.). The animals were placed on artificial respiration and the chest was opened to expose the heart. A Walton-Brodie strain gauge arch was sutured to the right ventricle for measurement of cardiac contractility. Arterial blood pressure was measured from a catheter placed in the abdominal aorta. Cardiac contractility and arterial pressure were recorded continuously on a Grass polygraph. All drugs were dissolved and infused intravenously in 0.9% NaCl solution.
Blood Pressure = change in diastolic blood pressure caused by a dose 4
times larger than CC50 -

[2] = system: cardiac contractility; assay: Cardiac contractility (inotropic effect), intravenous infusion, anesthetized open-chest dogs, strain gauge arch on right ventricle; format: in vivo; settings: for Inotropic Potency Relative to Dobutamine, Mean ± S.E.: i.v. infusion, based on CC50 (rate that increases contractility by 50%)
Description: as §1

[3] = system: cardiac contractility; assay: Intravenous infusion rates required to increase cardiac contractility by 50%, anesthetized dogs; format: in vivo
[4] = system: left ventricular dP/dt; assay: Inotropic response (left ventricular dP/dt) after buccal administration, anesthetized dogs; format: in vivo
Source text: The dogs were anesthetized with sodium pentobarbital as described above and a Millar® transducer-tip catheter positioned in the left ventircle after introduction through the left carotid artery. Left ventricular pressure was obtained from this catheter and electronically differentiated to obtain dP/dt.
The dogs were placed on their backs, and their heads and noses positioned so that their hard palates were level. After an appropriate period to collect control dP/dt values, the test drug was applied to the hard palate. The test drugs were made up in a solution of 50% ethanol in distilled water adjusting concentrations so that the desired dose was contained in 2.5 ml of solution. The drug solution was applied to a 100 mm^2 area of the hard palate contained by fitting parafilm over the drug solution lying on the palate.

[5] = system: cardiac contractility; assay: Inotropic response (LV dP/dt) when swallowed, conscious instrumented dogs; format: in vivo; settings: 5 mg/kg oral capsule
Description: To test the effectiveness of Compound I when swallowed, five previously trained dogs, instrumented with a miniature pressure transducer for measurement of cardiac contractility were used. On different days the conscious dogs were tested with placebo, dobutamine (5 mg/kg) or Compound I (5 mg/kg).
Several months prior to doing the procedure described above, a minature pressure transducer was mounted in the left ventricle of each dog's heart. The dogs were trained to swallow capsules and lie quietly for up to 3 hours. During this time, continuous recording of left ventricular pressure was made on a Grass polygraph. Also recorded was an electronically differentiated signal on the left ventricular pressure. This differential is referred to as LV dP/dt. This LV dP/dt is the rate that the left ventricle develops pressure and is accepted as an index of cardiac contractility.
On each day of testing the dogs were forced to swallow a gelatin capsule that was either empty (placebo), or contained dobutamine (5 mg/kg) or Compound I (5 mg/kg). Recordings were then made of cardiac contractility for 2 hours after the dog swallowed the capsule.

[6] = Blood (plasma) levels during intravenous infusion in anesthetized dog, HPLC with electrochemical detection; format: in vivo; settings: i.v. infusion 20 ug/kg/min; for concentration at 10 min / concentration at 20 min / concentration at 0.5 h: plasma, iv; for concentration at 10 min: infusion time 10 mins; for concentration at 20 min: infusion time 20 mins; for concentration at 0.5 h: infusion time 30 mins
Description: The data in Table 1 were obtained from a dog anesthetized with sodium pentobarbital (30 mg/kg, i.v.). The right femoral vein was cannulated for administration of drug and the left femoral vein was used for withdrawal of blood samples. All blood samples were collected in heparinized chilled tubes. The blood was centrifuged to separate red cells and the plasma was frozen.
After obtaining a control blood sample, dobutamine infusion at the rate of 20 ug/kg/min was maintained for 30 mins. During the infusion, blood samples were drawn at 10, 20, and 30 mins. One hour after completion of the dobutamine infusion, a second control sample of blood was drawn and an infusion of Compound I at 20 ug/kg/min was begun. Samples of blood were taken during the Compound I infusion at 10, 20, and 30 mins.
The concentrations of Compound I and dobutamine in plasma were measured using HPLC with electrochemical detection. Chromatography was performed using a reverse-phase octadecylsilane (C18) column attached to an amperometric detector equipped with a glassy carbon electrode at a potential of +600 mV. The mobile phase consisted of acetonitrile:pH 3 buffer (15:85); the buffer (pH 3) contained 0.035M KH2 PO4, 0.003M citric acid and 0.002M Na2 EDTA. At a flow rate of 1.5 ml/min, Compound I, dobutamine and the internal standard for the assay (dioxymethylene derivative of dobutamine) eluted in […] respectively.
In the assay procedure, control plasma (1 mil) spiked with 0, 20, 100, 300 and 500 ng/ml test drug was added to silanized glass tubes (13×128 mm) containing 100 ng of the internal standard as a solution in 100 ul of 5M K2 HPO4. The samples were mixed and extracted twice with 4 ml of ethyl acetate. Following centrifugation, the combined organic extracts were evaporated, the residue dissolved in […] of mobile phase and a 10-15 ul aliquot injected into the chromatograph. Calibration curves were constructed by plotting the peak height ratios of test drug to the internal standard over the concentration range and interpolation of unknown plasma concentrations from the fitted line.

[7] = system: cardiac beta1 adrenergic receptors; settings: background, Tuttle and Mills, Circ. Res. 36: 185, 1975; cited from earlier work
[8] = background; cited from earlier work
[9] = Buccal absorption of ester relative to parent (buccal versus intravenous potency comparison); format: in vivo, dogs; settings: buccal versus i.v. potency, Compound I-A vs Compound I
Source text: Yet by the buccal route of administration, the ester was more than twice as potent as its parent. Therefore, the ester derivative was better absorbed through the buccal mucosa by a factor of more than eighteen times than was the parent compound.

SMILES: NC(=O)c1cccc(CCNCCc2ccc(O)c(O)c2)c1 [Compound II]
Blood Pressure, Mean ± S.E. (change in diastolic blood pressure) [1]: -8 ± 5
effect on blood pressure [1]: no rise in blood pressure
inotropic potency ([2]; i.v.): not significantly better than that of dobutamine
Inotropic Potency Relative to Dobutamine, Mean ± S.E. [2]: 1.5 ± 0.1

Blood levels compared with dobutamine [6]: higher blood levels than dobutamine
concentration at 10 min [6]: 417 ng/mL
concentration at 20 min [6]: 451 ng/mL
concentration at 0.5 h [6]: 874 ng/mL
SMILES: CC(CCc1cccc(C(N)=O)c1)NCCc1ccc(O)c(O)c1 (stereo not shown) [Compound I, N-[2-(3,4-dihydroxyphenyl)ethyl]-1-methyl-3-(3-carbamoylphenyl)propylaminehydrochloride]
Blood Pressure, Mean ± S.E. (change in diastolic blood pressure) [1]: 5.3 ± 4.5
effect on blood pressure [1]: no significant change in blood pressure; also recorded: no greater than that of dobutamine
Intravenous infusion rate required to increase cardiac contractility by 50% ([3]; Dog #1, i.v.): 0.29 µg/kg/min
Intravenous infusion rate required to increase cardiac contractility by 50% ([3]; Dog #2, i.v.): 0.097 µg/kg/min
Inotropic Response, Percent Change from Control, Mean ± S.E. (peak change in left ventricular dP/dt) ([4]; 2 mg/kg): 16.6 ± 6%
dose relative to that of dobutamine required for equivalent inotropic effect ([2]; i.v.): about a tenth
times more potent than dobutamine ([2]; i.v.): about ten
Inotropic Potency Relative to Dobutamine, Mean ± S.E. [2]: 9.1 ± 2.4
inotropic response when swallowed [5]: strong inotropic response; also recorded: effective when swallowed
persistence of inotropic response when swallowed [5]: more than two

SMILES: NC(=O)c1ccc(CCNCCc2ccc(O)c(O)c2)cc1 [Compound IV]
Blood Pressure, Mean ± S.E. (change in diastolic blood pressure) [1]: 26 ± 10
effect on blood pressure [1]: the blood pressure side effect reappears
Inotropic Potency Relative to Dobutamine, Mean ± S.E. [2]: 1.38 ± 0.2

SMILES: CC(CCc1ccc(C(N)=O)cc1)NCCc1ccc(OC(=O)C(C)C)c(OC(=O)C(C)C)c1 (stereo not shown) [Compound V-A]
Inotropic Response, Percent Change from Control, Mean ± S.E. (peak change in left ventricular dP/dt) ([4]; 1.39 mg/kg): No response
inotropic response, buccal ([4]; anesthetized dogs): no response

SMILES: CC(CCc1ccc(C(N)=O)cc1)NCCc1ccc(O)c(O)c1 (stereo not shown) [Compound V]
effect on blood pressure [1]: dangerous rise in blood pressure
cardiac potency relative to that with carbamyl group in meta position (Compound I) ([2]; i.v.): less than a third
Inotropic Potency Relative to Dobutamine, Mean ± S.E. [2]: 2.9 ± 0.3

SMILES: NC(=O)c1cccc(CCCNCCc2ccc(O)c(O)c2)c1 [Compound III]
Blood Pressure, Mean ± S.E. (change in diastolic blood pressure) [1]: 22.3 ± 16.2
effect on blood pressure [1]: undesired elevation in blood pressure
inotropic potency ([2]; i.v.): potency was reduced
Inotropic Potency Relative to Dobutamine, Mean ± S.E. [2]: 1.4 ± 1

SMILES: CC(CCc1cccc(C(N)=O)c1)NCCc1ccc(OC(=O)C(C)(C)C)c(OC(=O)C(C)(C)C)c1 (stereo not shown) [Compound I-B]
Inotropic Response, Percent Change from Control, Mean ± S.E. (peak change in left ventricular dP/dt) ([4]; 1.39 mg/kg): 13 ± 7%
inotropic response, buccal ([4]; anesthetized dogs): small response

SMILES: CC(CCc1ccc(O)cc1)NCCc1ccc(O)c(O)c1 (stereo not shown) [Dobutamine, reference compound]
cardioselectivity [7]: cardioselective in its actions
Blood Pressure, Mean ± S.E. (change in diastolic blood pressure) [1]: 7.8 ± 4.5
Inotropic Response, Percent Change from Control, Mean ± S.E. (peak change in left ventricular dP/dt) ([4]; 5 mg/kg): 2.7 ± 2%
clearance from the blood [8]: rapidly cleared from the blood
inotropic response when swallowed [5]: did not produce a response significantly better than the placebo
concentration at 10 min [6]: 155 ng/mL
concentration at 20 min [6]: 176 ng/mL
concentration at 0.5 h [6]: 158 ng/mL

factor of better absorption through the buccal mucosa than parent compound [9]: more than eighteen
SMILES: CC(CCc1cccc(C(N)=O)c1)NCCc1ccc(OC(=O)C(C)C)c(OC(=O)C(C)C)c1 (stereo not shown) [Compound I-A, N[2-(3,4-diisobutyryloxyphenyl)ethyl]-1-methyl-3-(3-carbamoylphenyl)propylamine hydrochloride]
Dose Ratio (Compound I-A to Compound I) ([3]; Dog #1, i.v.): 9.6
Intravenous infusion rate required to increase cardiac contractility by 50% ([3]; Dog #1, i.v.): 2.8 µg/kg/min
Dose Ratio (Compound I-A to Compound I) ([3]; Dog #2, i.v.): 12.9
Intravenous infusion rate required to increase cardiac contractility by 50% ([3]; Dog #2, i.v.): 1.25 µg/kg/min
times less potent than parent catechol (Compound I) ([3]; intravenous infusion): more than nine
Inotropic Response, Percent Change from Control, Mean ± S.E. (peak change in left ventricular dP/dt) ([4]; 1.39 mg/kg): 61 ± 3%
inotropic response, buccal ([4]; anesthetized dogs): the most effective by this route
buccal potency relative to Compound I ([4]; molar basis, anesthetized dogs): more than twice
